According to the supplement of paper PMC10307832:

How the values were obtained:
Test in all cases: relative viability (nuclei count vs DMSO), 5 days (fraction); higher = more cells survive
Selisistat + Trametinib = compound: C1CC(C2=C(C1)C3=C(N2)C=CC(=C3)Cl)C(=O)N [Selisistat] + CC(=O)Nc1cccc(-n2c(=O)n(C3CC3)c(=O)c3c(Nc4ccc(I)cc4F)n(C)c(=O)c(C)c32)c1 [Trametinib] (partner 0.02 µM)
Outline: (§1)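 The day after seeding in 1536-well plates, lung cancer cell lines were treated by pin tool with a single drug, or with a fixed anchor-drug dose together with five library-drug doses (not always all listed) in √10 steps. After 5 days, a combined fix-and-stain solution (final 0.05% Triton X-100, 1% formaldehyde, 1 ug/ml Hoechst) was added. Nuclei counted on 4× images gave relative viability as treated counts over vehicle counts, reported as the median of duplicate plates.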

Selisistat + Foretinib = compound: C1CC(C2=C(C1)C3=C(N2)C=CC(=C3)Cl)C(=O)N [Selisistat] + COc1cc2c(Oc3ccc(NC(=O)C4(C(=O)Nc5ccc(F)cc5)CC4)cc3F)ccnc2cc1OCCCN1CCOCC1 [Foretinib] (partner 0.25 µM)
Outline: as §1

Selisistat + Navitoclax = compound: C1CC(C2=C(C1)C3=C(N2)C=CC(=C3)Cl)C(=O)N [Selisistat] + CC1(C)CCC(c2ccc(Cl)cc2)=C(CN2CCN(c3ccc(C(=O)NS(=O)(=O)c4ccc(N[C@H](CCN5CCOCC5)CSc5ccccc5)c(S(=O)(=O)C(F)(F)F)c4)cc3)CC2)C1 [Navitoclax] (partner 0.5 µM)
Outline: as §1

## UMC-11
Selisistat + Trametinib; first compound 0.4 µM
  relative viability: 0.575
Selisistat + Trametinib; first compound 1.265 µM
  relative viability: 0.653
Selisistat + Trametinib; first compound 4 µM
  relative viability: 0.596
Selisistat + Trametinib; first compound 12.65 µM
  relative viability: 0.742
Selisistat + Trametinib; first compound 40 µM
  relative viability: 0.717
Selisistat + Foretinib; first compound 0.4 µM
  relative viability: 0.979
Selisistat + Foretinib; first compound 1.265 µM
  relative viability: 0.988
Selisistat + Foretinib; first compound 4 µM
  relative viability: 1.08
Selisistat + Foretinib; first compound 12.65 µM
  relative viability: 0.982
Selisistat + Foretinib; first compound 40 µM
  relative viability: 1.02
Selisistat + Navitoclax; first compound 0.4 µM
  relative viability: 0.296
Selisistat + Navitoclax; first compound 1.265 µM
  relative viability: 0.294
Selisistat + Navitoclax; first compound 4 µM
  relative viability: 0.276
Selisistat + Navitoclax; first compound 12.65 µM
  relative viability: 0.316
Selisistat + Navitoclax; first compound 40 µM
  relative viability: 0.332
